Experimental data from paper PMC9589286, “Ruthenium polypyridine complexes with triphenylamine groups as antibacterial agents against Staphylococcus aureus with membrane-disruptive mechanism” (Frontiers in Chemistry, 2022).
≈ marks a conversion by molar mass, not a printed value.

Tests used:
[1] = test system: Staphylococcus aureus; assay: Checkerboard assay with antibiotics; type: cell-based; conditions: for MIC of antibiotics: antibiotic alone, S. aureus; for FICI: combination of the antibiotic with Ru-3, S. aureus
Procedure: Firstly, the MIC of all selected antibiotics was determined by the above method. Staphylococcus aureus was cultured overnight and diluted 1000 times with fresh TSB. Then 200 μL the diluted bacterial suspension, 25 μL Ru-3 of gradient concentrations and 25 μL antibiotics of gradient concentrations were mixed in 96 well plates and further cultured at 37°C for 20 h. MIC values of single drug and the best combination effect (combination of MICA and MICB) were measured. Graphpad prism software was used to draw the checkerboard map and isoline map.

[2] = test system: Staphylococcus aureus; assay: MIC by microdilution in TSB broth; type: cell-based; conditions: 20 h
Procedure: Antibacterial activity was evaluated by measuring MIC (minimum inhibitory concentration) and MBC (minimum bactericidal concentration) values. The MIC value was measured by the microdilution method using TSB broth with 96 well plates ([Carlsen et al., 1981]) and the MBC value was determined by LB plates. In brief, the overnight cultured bacteria were 1: 1000 diluted with fresh medium to get a bacterial suspension. After incubation at 37°C for 20 h, the growth of bacteria is monitored by observing the turbidity of the culture. The bacterial solution was diluted as above method and the complexes were incubated with bacterial solution for 2 h. Then 100 μL bacterial solution was taken for plate coating. The Staphylococcus aureus growth inhibition trend in the presence of complexes was obtained. The MBC values of complexes were determined by LB plates after culturing in the same method for 24 h. All experiments were controlled with sterile water and repeated in parallel at least three times.

[3] = Partition coefficient, shake flask 1-octanol/PBS; type: physicochemical
Procedure: The partition coefficients of all complexes were determined by standard shake flask method in 1-octanol and buffer liquid system ([Yang et al., 2021]). In brief, the octanol/water partition coefficient is obtained by the incubation of 2 ml of 25 μg ml^−1 ruthenium complex 1-octanol and 2 ml PBS samples. After shaking the solution for 6 h, the samples were stood for 2 h. The absorbance of octanol complex at 282 nm before and after oscillation was measured. The absorbance of 1-octanol before oscillation minus the absorbance of 1-octanol after oscillation is the absorbance of the complex in water. Each experiment was repeated three times. The partition coefficient is reported as the number of octanol divided by the number of water.

[4] = test system: rabbit red blood cells; assay: Hemolytic activity on rabbit red blood cells; type: cell-based; conditions: 37°C, 30 min
Procedure: Obtain red blood cells from fresh sterile rabbit blood and rabbit blood was washed three times with PBS. Ru(II) complexes in 950 µL phosphoric acid buffer (PBS) of different concentrations and 50 μL red blood cells were added into a 1.5 ml sample tube, incubated at 37°C for 30 min. The negative control was red blood cell suspension containing only PBS, and the positive control was PBS containing 0.1% (V/V) Triton X-100. After incubating the mixture was centrifugated (2000 rpm for 2 min) and the supernatant (200 μL) was transfered to another 96 well plate. Finally, the hemolysis rate was calculated by measuring the absorbance at 540 nm.

[5] = test system: Staphylococcus aureus; assay: Drug resistance study, 20 generations at sub inhibitory concentration; type: cell-based; conditions: 20 passages at sublethal concentration
Procedure: After Staphylococcus aureus was cultured for 5 h, the bacteria were diluted 1000 times with fresh TSB and the MIC of Ru-3 was measured. The bacterial solution grown at the sub inhibitory concentration of compound Ru-3 was inoculated into fresh TSB medium for 5 h, then the MIC was measured, and the above procedure was repeated for 20 generations. Ampicillin was used as the control.

[6] = test system: Galleria mellonella; assay: Toxicity in insect model Galleria mellonella; type: in vivo; conditions: larvae, 120 h
Procedure: Based on the excellent antibacterial effect of Ru-3 in vitro, its biosafety was further evaluated. Firstly, the hemolytic activity of ruthenium complexes on rabbit red blood cells was measured to study their toxicity. […] In view of its good compatibility with mammalian red blood cells, the toxicity of Ru-3 to eukaryotes was also studied. Herein, Ru-3 was tested with Gallery melonella larvae. […] When the concentration of Ru-3 was 64 mg kg^−1, the survival rate was still 75%.
FIGURE 15 Test results of Ru compounds toxicity (A) % hemolysis at 256 μg ml^−1 of Ru compounds. (B) Kaplan-Meier survival curves. […] The larvae were incubated at 37.5°C and live/dead scores were conducted at 120 h (C) H&E staining images of the infected tissues with different treatments.

[7] = test system: Staphylococcus aureus; assay: Nucleic acid leakage, 260 nm absorbing material; type: cell-based; conditions: 100 μg/ml, 2 h
Procedure: To verify the membrane damage, the loss of 260 nm absorbing material was carried out ([Yu et al., 2021]). Briefly, overnight cultured bacteria were diluted 1:1000 in fresh TSB and shaken at 37°C for about 5 h until the exponential stage was reached. The supernatant was removed by centrifugation, then the bacteria were resuspended to OD600 = 1 with PBS, which was further treated with Ru-3 or polymyxin B and centrifuged after 2 h to precipitate bacterial cells. Subsequently, the loss of 260 nm absorbing material, including the release of DNA and RNA in the filtrate, was measured at 260 nm.

CN(C)[C@@H]1C(O)=C(C(N)=O)C(=O)[C@@]2(O)C(O)=C3C(=O)c4c(O)cccc4[C@@](C)(O)[C@H]3C[C@@H]12 [Tetracycline] showed an MIC of antibiotics [1] of 0.39 µg/mL and an FICI [1] of 0.50.
For O.O.O.[Cl][Ru]([Cl])[Cl] [RuCl3∙3H2O], the MIC ([2]; S. aureus, 37°C) was >256 µg/mL.
With CN[C@H](CC(C)C)C(=O)N[C@H]1C(=O)N[C@@H](CC(N)=O)C(=O)N[C@H]2C(=O)N[C@H]3C(=O)N[C@H](C(=O)N[C@H](C(=O)O)c4cc(O)cc(O)c4-c4cc3ccc4O)[C@H](O)c3ccc(c(Cl)c3)Oc3cc2cc(c3O[C@@H]2O[C@H](CO)[C@@H](O)[C@H](O)[C@H]2O[C@H]2C[C@](C)(N)[C@H](O)[C@H](C)O2)Oc2ccc(cc2Cl)[C@H]1O [Vancomycin] the MIC of antibiotics [1] was 2 µg/mL, the FICI [1] was 1.00 and the MIC ([2]; Staphylococcus aureus) was 2 µg/mL (≈ 1.38 µM).
NC[C@H]1O[C@H](O[C@H]2[C@H](O)[C@@H](O[C@H]3O[C@H](CO)[C@@H](O)[C@H](N)[C@H]3O)[C@H](N)C[C@@H]2N)[C@H](O)[C@@H](O)[C@@H]1O [Kanamycin] showed an MIC of antibiotics [1] of 50.00 µg/mL and an FICI [1] of 0.38.
Work on O=C(N[C@H](CO)[C@H](O)c1ccc([N+](=O)[O-])cc1)C(Cl)Cl [Chloramphenicol] yielded an MIC of antibiotics [1] of 6.25 µg/mL and an FICI [1] of 0.50.
With [Ru(dmob)2PMA] (PF6)2 [Ru-1] the LgP [3] was 1.14, the logD o/w [3] was “ca. 1.1445” and the “% Hemolysis at 256 μg/ml” value [4] was 8%. It also gave an MIC ([2]; S. aureus, 37°C) of 16 µg/mL.
In the case of CC1(C)S[C@@H]2[C@H](NC(=O)[C@H](N)c3ccccc3)C(=O)N2[C@H]1C(=O)O [Ampicillin, reference compound], the MIC of antibiotics [1] is reported as 0.39 µg/mL, the FICI [1] is reported as 0.38 and the “increase of MIC value after 20 generations” value [5] is reported as “more than 1024 times”. For the same compound, the Kaplan-Meier survival curve [6] was “coincides with control’s curve”.
With CNC(C)C1CCC(N)C(OC2C(N)CC(N)C(OC3OCC(C)(O)C(NC)C3O)C2O)O1 (centres unmarked) [Gentamicin] the MIC of antibiotics [1] was 6.25 µg/mL and the FICI [1] was 0.38.
With Polymyxin B [reference compound] the “Δ% Nucleic acid leakage” value [7] was 23%.
In the case of [Ru(bpy)2PMA] (PF6)2 [Ru-2], the LgP [3] is reported as 0.97, the logD o/w [3] is reported as “ca. 0.9681” and the “% Hemolysis at 256 μg/ml” value [4] is reported as 16%. The MIC ([2]; S. aureus, 37°C) was 8 µg/mL.
With Cc1ccc(N(c2ccc(C)cc2)c2ccc(-c3nc4c5cccnc5c5ncccc5c4[nH]3)cc2)cc1 [PMA] the MIC ([2]; S. aureus, 37°C) was >256 µg/mL.
